Data published in patent US20180354980A1, “NOVEL TRITERPENE-GLYCOSIDES AS SWEETENERS OR SWEETENER ENHANCER” (Analyticon Discovery GmbH, priority 2015, published 2018).

Experiments:
[1] = tested on: panel of 4 panelists; test: Organoleptic test of the compounds against sucrose and Pterocaryoside A; type: in vivo; set-up: key to sweetness compared to sucrose: 3: sweeter than the control solution; 2: sweetness comparable with the control solution; 1: less sweet than the control solution but still sweet; conditions: for sweetness compared to sucrose: 0.4 mg/ml (400 ppm) in non-carbonated mineral water vs sucrose 20 mg/ml, panel of 4 panelists; for comment (bitter off taste): 0.4 mg/ml (400 ppm) in non-carbonated mineral water, compared with Pterocaryoside A
Method: (§1) The isolated pure compounds were dissolved in non-carbonated mineral water (“Fonsana Quelle”) in a concentration of 0.4 mg/ml (400 ppm). The sweet taste of each sample was compared by a panel of 4 panelists with a solution of sucrose in a concentration of 20 mg/ml.

[2] = Solubility in non-carbonated mineral water at the test concentration; type: physicochemical; conditions: 0.4 mg/ml in non-carbonated mineral water
Method: as §1

[3] = tested on: panel; conditions: ammonium salt; panel rating; cited from earlier work
[4] = in vivo; cited from earlier work

| Compound | sweetness compared to sucrose [1] | comment (bitter off taste) [1] | further results |
| --- | --- | --- | --- |
| C=C(C)C1CCC2(C)C(CC(O[C@@H]3OC[C@H](O)[C@H](O)[C@H]3O)C3C(C(C)=O)CCC32C)C1(C)CCC(=O)O (stereo partly drawn) [Compound E, 3-(3-acetyl-6,9a,9b-trimethyl-7-(prop-1-en-2-yl)-4-((2S,3R,4S,5S)-3,4,5-trihydroxytetrahydro-2H-pyran-2-yloxy)dodecahydro-1H-cyclopenta[a]naphthalen-6-yl)propanoic acid] | 3 | less bitter than Pterocaryoside A |  |
| Pterocaryoside A |  | strong bitter and slightly hot off-taste | solubility at the desired concentration [2]: not completely soluble; off-taste [3]: persistent, mildly bitter, off-taste; onset of sweetness [3]: instantaneous; sweetness relative to sucrose [3]: about 50 times sweeter than 2% sucrose; sweetness compared with the sucrose solution (in words) ([1]; solution at desired 0.4 mg/ml, not completely dissolved, vs sucrose 20 mg/ml): comparable to the sweetness of the sucrose solution |
| C=C(C)C(O)C(O)CC(C)(O)C1CCC2(C)C1C(O[C@@H]1OCC(O)[C@H](O)[C@H]1O)CC1C(C)(CCC(=O)O)C(C(=C)C)CCC12C (stereo in doubt) [Compound D, 3-(6,9a,9b-trimethyl-7-(prop-1-en-2-yl)-3-(2,4,5-trihydroxy-6-methylhept-6-en-2-yl)-4-((2S,3R,4S,5S)-3,4,5-trihydroxytetrahydro-2H-pyran-2-yloxy)dodecahydro-1H-cyclopenta[a]naphthalen-6-yl)propanoic acid] | 3 | less bitter than Pterocaryoside A |  |
| C=C(C)C1CCC2(C)C(CC(O[C@@H]3OC[C@H](O)[C@H](O)[C@H]3O)C3C(C4(C)CCC(C(C)(C)O)O4)CCC32C)C1(C)CCC(=O)O (stereo partly drawn) [Compound A, 3-(3-(5-(2-hydroxypropan-2-yl)-2-methyltetrahydrofuran-2-yl)-6,9a,9b-trimethyl-7-(prop-1-en-2-yl)-4-((2S,3R,4S,5S)-3,4,5-trihydroxytetrahydro-2H-pyran-2-yloxy)dodecahydro-1H-cyclopenta[a]naphthalen-6-yl)propanoic acid] | 3 | less bitter than Pterocaryoside A |  |
| C[C@H](CC[C@@H](O[C@@H]1O[C@H](CO[C@@H]2O[C@H](CO)[C@@H](O)[C@H](O)[C@H]2O)[C@@H](O)[C@H](O)[C@H]1O[C@@H]1O[C@H](CO)[C@@H](O)[C@H](O)[C@H]1O)C(C)(C)O)[C@H]1CC[C@@]2(C)[C@@H]3CC=C4[C@@H](CC[C@H](O[C@@H]5O[C@H](CO[C@@H]6O[C@H](CO)[C@@H](O)[C@H](O)[C@H]6O)[C@@H](O)[C@H](O)[C@H]5O)C4(C)C)[C@]3(C)[C@H](O)C[C@]12C [mogroside V] |  |  | aftertaste [4]: certain bitter aftertaste |
| C[C@H](CC[C@@H](O[C@@H]1O[C@H](CO[C@@H]2O[C@H](CO)[C@@H](O)[C@H](O)[C@H]2O)[C@@H](O)[C@H](O)[C@H]1O[C@@H]1O[C@H](CO)[C@@H](O)[C@H](O)[C@H]1O)C(C)(C)O)[C@H]1CC[C@@]2(C)[C@@H]3CC=C4[C@@H](CC[C@H](O[C@@H]5O[C@H](CO)[C@@H](O[C@@H]6O[C@H](CO)[C@@H](O)[C@H](O)[C@H]6O)[C@H](O)[C@H]5O)C4(C)C)[C@]3(C)[C@H](O)C[C@]12C [iso-mogroside V] |  |  | aftertaste [4]: certain bitter aftertaste |
| Pterocaryoside B |  |  | off-taste [3]: persistent, mildly bitter, off-taste; onset of sweetness [3]: instantaneous; sweetness relative to sucrose [3]: about 100 times sweeter than 2% sucrose |
| C=C(C)C(O)C(O)CC(C)(O)C1CCC2(C)C1C(O[C@@H]1O[C@H](C)[C@@H](O)[C@H](O)[C@H]1O)CC1C(C)(CCC(=O)O)C(C(=C)C)CCC12C (stereo partly drawn) [Compound C, 3-(6,9a,9b-trimethyl-7-(prop-1-en-2-yl)-3-(2,4,5-trihydroxy-6-methylhept-6-en-2-yl)-4-((2R,3R,4S,5S,6R)-3,4,5-trihydroxy-6-methyltetrahydro-2H-pyran-2-yloxy)dodecahydro-1H-cyclopenta[a]naphthalen-6-yl)propanoic acid] | 3 | less bitter than Pterocaryoside A |  |
| C=C(C)C(O)CCC(C)(O)C1CCC2(C)C1C(OC1OC(COC(C)=O)C(O)C1O)CC1C(C)(CCC(=O)O)C(C(=C)C)CCC12C (stereo not drawn) [Compound B, 3-(4-(5-(acetoxymethyl)-3,4-dihydroxytetrahydrofuran-2-yloxy)-3-(2,5-dihydroxy-6-methylhept-6-en-2-yl)-6,9a,9b-trimethyl-7-(prop-1-en-2-yl)dodeca hydro-1H-cyclopenta[a]naphthalen-6-yl)propanoic acid] | 1 | slightly bitter off taste comparable to |  |
